Source: patent US20230277553A1, “THERAPEUTIC COMPOSITION OF CURE-PRO COMPOUNDS FOR TARGETED DEGRADATION OF BET DOMAIN PROTEINS, AND METHODS OF MAKING AND USAGE” (CORNELL UNIVERSITY, priority 2020, published 2023)
“Also recorded” adds a separate entry of the source.

What was measured:
[1] = test system: SLC19A1; experiment: Suppression of c-MYC downstream target gene SLC19A1, RT-PCR (Cells-to-Ct), HeLa cells; type: cell-based, Human; details: 24 h, 10 μM
Experimental: The suppression of the expression of the downstream c-MYC target, SLC19A1, was measured by RT-PCR using Power SYBR© Green Cells-to-Ct™ Kit (Life Technologies). Adherent cells were plated on 96 well plates at 5,000 cells per well were treated for 24h with monomer compounds and compounds capable of reversible interactions (1 nM-100 μM). Cells were subsequently washed in ice-cold PBS processed according to the manufacturer's instructions. Quantitative real-time PCR was performed using a ViiA™ 7 Real-time PCR System (Applied Biosystems, Foster City, Calif., USA). GAPDH and ACTB served as internal controls. The primers used were (5′-3′): GAPDH-F: AGCCACATCGCTCAGACAC (SEQ ID NO:9), GAPDH-R: GCCCAATACGACCAAATCC (SEQ ID NO:10), ACTB —F: CCAACCGCGAGAAGATGA (SEQ ID NO: 11), ACTB -R: […] (SEQ ID NO: 12), SLC19A1-F: […] (SEQ ID NO:13), SLC19A1-R: […] (SEQ ID NO: 14).
HeLa cells (1×104) were treated for 24 hours in 96 well plates with the compounds solubilized in DMSO. Compounds were added at 10 μM each and RNA expression measured by the Cells-to Ct method described above (Thermofisher). CURE-PRO-mediated suppression of the downstream target gene of c-MYC, SLC19A1, after BRD4 degradation was evident in cells treated with the combination of BRD-N25 and 8310 or 8312 (FIG. 66) and BRD-N39 and 8310 and 8312 (FIG. 67) as indicated by a rightward shift in the curve and in increase in the Ct values.

[2] = test system: MV-4-11 cells; experiment: CellTiter-Glo cell viability, MV-4-11 cells; type: cell-based; details: for Loss of cellular viability / toxicity, cotreated with cereblon ligands 8046, 8047 and 8066 vs monomers alone: MV-4-11, 72 hours, 1:1, 10 nM-100 μM each; for Loss of cellular viability / toxicity, co-dosed with CRBN ligand 8049: 1:1 with 8049, 1 nM-100 μM each
Experimental: CellTiter-Glo® 2.0 Cell Viability Assay (Promega) was carried out following the manufacturer's recommendations. Cells were seeded at a density of 1000 cells/well in a white 96 well plates (Corning, #3917) in a total volume of 100 μl with respective monomers, combinations of BRD ligands together with E3 ligase ligands or vehicle control treatment. After a 72 h incubation, 100 ul of the CellTiter-Glo® substrate was added per well and luminescence was read on a Spectramax M5 (Molecular Devices). Dose-response curves were generated using Graphpad Prism software.
MV-4-11 cells (5×104) were treated for 24 hours with the sample compounds solubilized in DMSO. The compounds were added at 1 nM-100 μM each. Cellular viability was determined using the CellTiter-Glo® Luminescent Cell Viability Assay (Promega) described above. FIGS. 19-22 depict the CURE-PRO-mediated loss of cellular viability for BRD monomers (JQ1 derivatives comprising of catechol linkers), and CRBN ligand, 8049 (pomalidomide derivatives comprising boronic acid linkers) combined in a 1:1 ratio.
MV-4-11 cells (1×104) were treated for 72 hours with the compounds solubilized in DMSO. Compounds were added at 10 nM-100 μM each. Cellular viability was determined using the CellTiter-Glo® Luminescent Cell Viability Assay (Promega) described above. FIGS. 47-54 depict the CURE-PRO-mediated loss of cellular viability for BRD monomers (JQ1 derivatives comprising of boronic acid linkers), and CRBN ligands, 8046, 8047 and 8066 (pomalidomide derivatives comprising diol linkers) combined in a 1:1 ratio.

[3] = target: T1, BRD4 (Homo sapiens, UniProt O60885); experiment: Summary of BRD4 degradation by CURE-PRO pairs, estimated from Western Blot or WES (Proteinsimple); type: cell-based; parameters: endogenous in cells; details: for Degradation of BRD4 in combination with CRBN ligand [drawing 372]: third drawing (8066); for Degradation of BRD4 in combination with CRBN ligand [drawing 370]: aromatic 1,2-diol- or hindered cis-1,2-diol-containing CRBN ligand, first drawing (8046)
From the text: A black check mark indicates efficacy of 30% to 70% or higher protein degradation.

[4] = target: T1, BRD4; experiment: CURE-PRO-mediated BRD4 degradation, Western blot, HeLa cells; type: cell-based; parameters: endogenous in cells; host or cells: HeLa; details: for BRD4 degradation, co-treatment with CRBN ligand 8046: 1:1 with 8046, 10 μM each; for BRD4 degradation, co-treatment with CRBN ligand 8047: 1:1 with 8047, 10 μM each; for BRD4 degradation, co-treatment with CRBN ligand 8066: 1:1 with 8066, 10 μM each (BRD-E10: 10 and 100 μM)
Procedure, shortened: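 HeLa cells treated 24 h with compounds in DMSO (1-10 μM, 10 μM or 100 μM each; paired monomers combined 1:1), optional 15-min pretreatment with pomalidomide, VHL298, Nutlin3a (10 μM) or MG-132/carfilzomib (1 μM). RIPA lysates, 10-20 μg protein immunoblotted for BRD4 with β-actin, ECL detection.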

Cc1sc2c(c1C)C(c1ccc(Cl)cc1)=N[C@@H](CC(=O)Nc1ccc(OCCOCCOCCOCCNc3cccc4c3C(=O)N(C3CCC(=O)NC3=O)C4=O)cc1)c1nnc(C)n1-2 (stereo partly shown) [ARV-825, reference compound]
Suppression of SLC19A1 expression, single compound [1]: Complete suppression of SLC19A1 was evident; also recorded: completely suppressed

COc1ccc2c(c1)C(c1ccc(Cl)cc1)=N[C@@H](CC(=O)NCCNC(=O)/C=C/c1ccc(B(O)O)cc1)c1nnc(C)n1-2 [BRD-E29, (4-((E)-3-((2-(2-((4S)-6-(4-chlorophenyl)-8-methoxy-1-methyl-4H-benzo[f][1,2,4]triazolo[4,3-a][1,4]diazepin-4-yl)acetamido)ethyl)amino)-3-oxoprop-1-en-1-yl)phenyl)boronic acid]
Loss of cellular viability / toxicity, cotreated with cereblon ligands 8046, 8047 and 8066 vs monomers alone [2]: reduced viability; also recorded: increased toxicity | Degradation of BRD4 in combination with CRBN ligand [drawing 371] ([3]; Table 1, CRBN ligand, second drawing (8047)): ✓ (A black check mark indicates efficacy of 30% to 70% or higher protein degradation) | Degradation of BRD4 in combination with CRBN ligand [drawing 372] ([3]; Table 1, CRBN ligand): ✓ (A black check mark indicates efficacy of 30% to 70% or higher protein degradation) | Degradation of BRD4 in combination with CRBN ligand [drawing 370] ([3]; Table 1): ✓ (A black check mark indicates efficacy of 30% to 70% or higher protein degradation) | BRD4 degradation, co-treatment with CRBN ligand 8046 ([4]; 24 h, Western blot): causes degradation of BRD4; also recorded: Degradation is noted | BRD4 degradation, co-treatment with CRBN ligand 8047 ([4]; 24 h, Western blot): causes degradation of BRD4; also recorded: Degradation is noted | BRD4 degradation, co-treatment with CRBN ligand 8066 ([4]; 24 h, Western blot): causes degradation of BRD4; also recorded: Degradation is noted

COc1ccc2c(c1)C(c1ccc(Cl)cc1)=N[C@@H](CC(=O)NCCOCCOCCNC(=O)c1cccc(B(O)O)c1)c1nnc(C)n1-2 [BRD-E46]
Loss of cellular viability / toxicity, cotreated with cereblon ligands 8046, 8047 and 8066 vs monomers alone [2]: reduced viability; also recorded: increased toxicity | Degradation of BRD4 in combination with CRBN ligand [drawing 372] ([3]; Table 1, CRBN ligand): ✓ (A black check mark indicates efficacy of 30% to 70% or higher protein degradation) | Degradation of BRD4 in combination with CRBN ligand [drawing 370] ([3]; Table 1): ✓ (A black check mark indicates efficacy of 30% to 70% or higher protein degradation) | BRD4 degradation, co-treatment with CRBN ligand 8046 ([4]; 24 h, Western blot): causes degradation of BRD4; also recorded: Degradation is noted | BRD4 degradation, co-treatment with CRBN ligand 8066 ([4]; 24 h, Western blot): causes degradation of BRD4; also recorded: Degradation is noted

COc1ccc2c(c1)C(c1ccc(Cl)cc1)=N[C@@H](CC(=O)Nc1cccc(B(O)O)c1)c1nnc(C)n1-2 [BRD-E73, (3-(2-((4S)-6-(4-chlorophenyl)-8-methoxy-1-methyl-4H-benzo[f][1,2,4]triazolo[4,3-a][1,4]diazepin-4-yl)acetamido)phenyl)boronic acid]
Loss of cellular viability / toxicity, cotreated with cereblon ligands 8046, 8047 and 8066 vs monomers alone [2]: reduced viability; also recorded: increased toxicity

CCNC(=O)C[C@@H]1N=C(c2ccc(Cl)cc2)c2cc(Sc3ccc(B(O)O)cc3)ccc2-n2c(C)nnc21 [BRD-E75, (4-(((4S)-6-(4-chlorophenyl)-4-(2-(ethylamino)-2-oxoethyl)-1-methyl-4H-benzo[f][1,2,4]triazolo[4,3-a][1,4]diazepin-8-yl)thio)phenyl)boronic acid]
Loss of cellular viability / toxicity, cotreated with cereblon ligands 8046, 8047 and 8066 vs monomers alone [2]: reduced viability; also recorded: increased toxicity

CCNC(=O)C[C@@H]1N=C(c2ccc(Cl)cc2)c2cc(Sc3cccc(B(O)O)c3)ccc2-n2c(C)nnc21 [BRD-E76]
Loss of cellular viability / toxicity, cotreated with cereblon ligands 8046, 8047 and 8066 vs monomers alone [2]: reduced viability; also recorded: increased toxicity | Degradation of BRD4 in combination with CRBN ligand [drawing 370] ([3]; Table 1): ✓ (A black check mark indicates efficacy of 30% to 70% or higher protein degradation) | BRD4 degradation, co-treatment with CRBN ligand 8046 ([4]; 24 h, Western blot): causes degradation of BRD4 | BRD4 degradation, co-treatment with CRBN ligand 8047 ([4]; 24 h, Western blot): causes degradation of BRD4

CCNC(=O)C[C@@H]1N=C(c2ccc(Cl)cc2)c2cc(OCCCCCCCNC(=O)c3ccc(B(O)O)cc3)ccc2-n2c(C)nnc21 [BRD-E78]
Loss of cellular viability / toxicity, cotreated with cereblon ligands 8046, 8047 and 8066 vs monomers alone [2]: reduced viability; also recorded: increased toxicity | Degradation of BRD4 in combination with VHL ligand [drawing 397] ([3]; Table 3, aromatic 1,2-diol-containing VHL ligand, second drawing (8305)): ✓ (A black check mark indicates efficacy of 30% to 70% or higher protein degradation)

COc1ccc2c(c1)C(c1ccc(Cl)cc1)=N[C@@H](CC(=O)NCCCCCNC(=O)c1cccc(O)c1O)c1nnc(C)n1-2 [BRD-N8, N-(5-(2-((4S)-6-(4-chlorophenyl)-8-methoxy-1-methyl-4H-benzo[f][1,2,4]triazolo[4,3-a][1,4]diazepin-4-yl)acetamido)pentyl)-2,3-dihydroxybenzamide]
Loss of cellular viability / toxicity, co-dosed with CRBN ligand 8049 ([2]; MV-4-11, 24 hours): concentration-dependent loss in cellular viability; also recorded: increased toxicity

COc1ccc2c(c1)C(c1ccc(Cl)cc1)=N[C@@H](CC(=O)NCCc1ccc(O)c(O)c1)c1nnc(C)n1-2 [BRD-N10, (S)-2-(6-(4-chlorophenyl)-8-methoxy-1-methyl-4H-benzo[f][1,2,4]triazolo[4,3-a][1,4]diazepin-4-yl)-N-(3,4-dihydroxyphenethyl)acetamide]
Loss of cellular viability / toxicity, co-dosed with CRBN ligand 8049 ([2]; MV-4-11, 24 hours): concentration-dependent loss in cellular viability; also recorded: increased toxicity | Degradation of BRD4 in combination with CRBN ligand [drawing 407] ([3]; Table 4, aryl-boronic acid-containing CRBN ligand, first drawing (by text: 8048)): ✓ (A black check mark indicates efficacy of 30% to 70% or higher protein degradation) | Degradation of BRD4 in combination with CRBN ligand [drawing 408] ([3]; Table 4, aryl-boronic acid-containing CRBN ligand, second drawing (by text: 8049)): ✓ (A black check mark indicates efficacy of 30% to 70% or higher protein degradation) | Degradation of BRD4 in combination with MDM2 ligand [drawing 423] ([3]; Table 5, aryl-boronic acid-containing MDM2 ligand, first drawing (8310)): ✓ (A black check mark indicates efficacy of 30% to 70% or higher protein degradation) | BRD4 degradation, co-treatment with CRBN ligand 8048 ([4]; 24 h, 1:1 with 8048, 1-10 μM each, Western blot): causes degradation of BRD4; also recorded: capable of degrading BRD4 | BRD4 degradation, BRD ligand alone ([4]; 24 h, BRD monomer alone, Western blot): no degradation of BRD4

O=C1CCC(N2C(=O)c3cccc(CNC(=O)c4cccc(B(O)O)c4)c3C2=O)C(=O)N1 (stereo not shown) [compound 8049]
Loss of cellular viability, monomer alone ([2]; MV-4-11, 24 hours, 1 nM-100 μM): little loss of viability was observed

Nc1cccc2c1C(=O)N(C1CCC(=O)NC1=O)C2=O (stereo not shown) [pomalidomide, reference compound]
Suppression of SLC19A1 expression, single compound [1]: no suppression | Inhibition of CURE-PRO-mediated BRD4 degradation (BRD-E52 or BRD-E72 with 8047) by preincubation ([4]; 15 min preincubation, equimolar (10 μM)): competitively inhibited; also recorded: inhibition of CURE-PRO-mediated BRD4 degradation
